Consider twelve compounds from ChEMBL document CHEMBL5375964, “Identification of Small Molecule Inhibitors and Ligand Directed Degraders of Calcium/Calmodulin Dependent Protein Kinase Kinase 1 and 2 (CaMKK1/2)” (J Med Chem, 2023).

Molecules are shown by their SMILES. Where only a bound is given, the exact number is not on record here.

In data set [1] the target is Calcium/calmodulin-dependent protein kinase kinase 2 (Homo sapiens, UniProt Q96RR4). The experiment in a line: Induction of ePL tagged degradation of CaMKK2 (unknown origin) expressed in […] cells incubated for 24 hrs by luminescence based analysis. The data set is classed as cell-based, HEK293T.
Data set [2] addresses Voltage-gated inwardly rectifying potassium channel KCNH2 (Homo sapiens, UniProt Q12809). The experiment in a line: Inhibition of human ERG. In kind it is toxicity.
Data set [3] in a line: Plasma protein binding in Beagle dog. The data set is classed as ADME, cell-free, Canis lupus familiaris. Conditions: read-out: PPB (converted).
Data set [4] can be described thus: Half life in Cynomolgus monkey at 3 mg/kg, po or 1 mg/kg, iv measured upto 72 hrs. In kind it is ADME, organism-based, Macaca fascicularis. Conditions: in vivo.
A short description of data set [5]: Half life in Sprague-Dawley rat at 3 mg/kg, po or 1 mg/kg, iv measured upto 24 hrs. The data set is classed as ADME, organism-based. Conditions: in vivo.
The nature of data set [6]: Cmax in Cynomolgus monkey at 3 mg/kg, po or 1 mg/kg, iv measured upto 72 hrs. In kind it is ADME, organism-based, Macaca fascicularis. The arrangement: time < 72 hrs, dose 3 mg/kg, route po. Conditions: in vivo.
Data set [7] can be described thus: Cmax in Sprague-Dawley rat at 3 mg/kg, po or 1 mg/kg, iv measured upto 24 hrs. The data set is classed as ADME, organism-based. Set-up: dose 3 mg/kg, time < 24 hrs, route po. Conditions: in vivo.
Data set [8] in a line: Tmax in Beagle dog at 3 mg/kg, po or 1 mg/kg, iv measured upto 72 hrs. In kind it is ADME, organism-based, Canis lupus familiaris. Conditions: in vivo.
The nature of data set [9]: AUC (0 to 24 hrs) in Sprague-Dawley rat at 3 mg/kg, po or 1 mg/kg, iv measured upto 24 hrs. In kind it is ADME, organism-based. Set-up: time < 24 hrs, dose 3 mg/kg, route po. Conditions: in vivo.
The nature of data set [10]: Bioavailability in Beagle dog at 3 mg/kg, po or 1 mg/kg, iv measured upto 72 hrs. In kind it is ADME, organism-based, Canis lupus familiaris. Conditions: in vivo.
Data set [11] can be described thus: AUC (0 to 72 hrs) in Beagle dog at 3 mg/kg, po or 1 mg/kg, iv measured upto 72 hrs. Set-up: dose 3 mg/kg, time < 72 hrs, route po. The data set is classed as ADME, organism-based, Canis lupus familiaris. Conditions: in vivo.
Data set [12] can be described thus: AUC (0 to 72 hrs) in Cynomolgus monkey at 3 mg/kg, po or 1 mg/kg, iv measured upto 72 hrs. The data set is classed as ADME, organism-based, Macaca fascicularis. The arrangement: dose 3 mg/kg, time < 72 hrs, route po. Conditions: in vivo.
Data set [13] is described as follows: Tmax in Sprague-Dawley rat at 3 mg/kg, po or 1 mg/kg, iv measured upto 24 hrs. In kind it is ADME, organism-based. Conditions: in vivo.
Data set [14] is described as follows: Half life in Beagle dog at 3 mg/kg, po or 1 mg/kg, iv measured upto 72 hrs. The data set is classed as ADME, organism-based, Canis lupus familiaris. Conditions: in vivo.
Data set [15] can be described thus: Bioavailability in Sprague-Dawley rat 3 mg/kg, po or 1 mg/kg, iv measured upto 24 hrs. In kind it is ADME, organism-based. Conditions: in vivo.
Data set [16] in a line: Volume of distribution in steady state in Beagle dog at 3 mg/kg, po or 1 mg/kg, iv measured upto 72 hrs. The data set is classed as ADME, organism-based, Canis lupus familiaris. Conditions: in vivo.
The nature of data set [17]: Cmax in Beagle dog at 3 mg/kg, po or 1 mg/kg, iv measured upto 72 hrs. Conditions: in vivo. Set-up: time < 72 hrs, dose 3 mg/kg, route po. In kind it is ADME, organism-based, Canis lupus familiaris.
A short description of data set [18]: Bioavailability in Cynomolgus monkey at 3 mg/kg, po or 1 mg/kg, iv measured upto 72 hrs. The data set is classed as ADME, organism-based, Macaca fascicularis. Conditions: in vivo.
Data set [19] deals with Calcium/calmodulin-dependent protein kinase kinase 1 (Homo sapiens, UniProt Q8N5S9). The experiment in a line: Inhibition of CaMKK1 (unknown origin) incubated for 20 mins in presence of kinase tracer 236 by TR-FRET.
A short description of data set [20]: Plasma protein binding in Cynomolgus monkey. The data set is classed as ADME, cell-free, Macaca fascicularis. Conditions: read-out: PPB (converted).
A short description of data set [21]: Plasma protein binding in Sprague-Dawley rat. Conditions: read-out: PPB (converted). In kind it is ADME, cell-free.
Data set [22] is described as follows: Plasma protein binding in human. In kind it is ADME, cell-free. The arrangement: dose or concentration left out as unconfirmed. Conditions: route po, read-out: PPB (converted).
Data set [23] in a line: Tmax in Cynomolgus monkey at 3 mg/kg, po or 1 mg/kg, iv measured upto 72 hrs. In kind it is ADME, organism-based, Macaca fascicularis. Conditions: in vivo.
The nature of data set [24]: Volume of distribution at steady state in Sprague-Dawley rat at 3 mg/kg, po or 1 mg/kg, iv measured upto 24 hrs. The data set is classed as ADME, organism-based. Conditions: in vivo.
A short description of data set [25]: AUC (0 to 24 hrs) in C57BL/6 mouse at 10 mg/kg, po measured upto 72 hrs. Set-up: dose 10 mg/kg, time < 72 hrs, route po. Conditions: in vivo. The data set is classed as ADME, organism-based.
A short description of data set [26]: Bioavailability in C57BL/6 mouse at 10 mg/kg, sc measured upto 72 hrs. Conditions: in vivo. In kind it is ADME, organism-based.
Data set [27] can be described thus: Tmax in C57BL/6 mouse at 10 mg/kg, sc measured upto 72 hrs. Conditions: in vivo. The data set is classed as ADME, organism-based.
Data set [28] in a line: Oral bioavailability in C57BL/6 mouse at 10 mg/kg measured upto 72 hrs. In kind it is ADME, organism-based. Conditions: in vivo.
A short description of data set [29]: Cmax in C57BL/6 mouse at 10 mg/kg, sc measured upto 72 hrs. In kind it is ADME, organism-based. The arrangement: dose 10 mg/kg, time < 72 hrs, route sc. Conditions: in vivo.
In data set [30] the target is Von Hippel-Lindau disease tumor suppressor/Elongin B/Elongin C (Homo sapiens, UniProt P40337). The experiment in a line: Binding affinity to N-terminal 6 his tagged VHL (54 to 213 residues)/truncated ElonginC (17 to 122 residues) /full length ElonginB (unknown origin) expressed in Escherichia coli assessed as dissociation constant measured upto 300 secs by SPR analysis.

Data set [31] can be described thus: Tmax in C57BL/6 mouse at 10 mg/kg, po measured upto 72 hrs. Conditions: in vivo. The data set is classed as ADME, organism-based.
Data set [32] can be described thus: Half life in C57BL/6 mouse at 10 mg/kg, sc measured upto 72 hrs. The data set is classed as ADME, organism-based. Conditions: in vivo.
A further data set relates to A-427. As to the kind of experiment: Antiproliferative activity against human A-427 cells assessed as reduction in cell growth incubated for 48 hrs by CellTiter assay. Conditions: A-427, 48 h.
Data set [33] can be described thus: AUC (0 to 24 hrs) in C57BL/6 mouse at 10 mg/kg, sc measured upto 72 hrs. In kind it is ADME, organism-based. Set-up: time < 72 hrs, dose 10 mg/kg, route sc. Conditions: in vivo.
The nature of data set [34]: Cmax in C57BL/6 mouse at 10 mg/kg, po measured upto 72 hrs. In kind it is ADME, organism-based. Set-up: time < 72 hrs, dose 10 mg/kg, route po. Conditions: in vivo.
Data set [35] can be described thus: Half life in C57BL/6 mouse at 10 mg/kg, po measured upto 72 hrs. Conditions: in vivo. The data set is classed as ADME, organism-based.

Sequence of Calcium/calmodulin-dependent protein kinase kinase 1 (Q8N5S9 whole entry): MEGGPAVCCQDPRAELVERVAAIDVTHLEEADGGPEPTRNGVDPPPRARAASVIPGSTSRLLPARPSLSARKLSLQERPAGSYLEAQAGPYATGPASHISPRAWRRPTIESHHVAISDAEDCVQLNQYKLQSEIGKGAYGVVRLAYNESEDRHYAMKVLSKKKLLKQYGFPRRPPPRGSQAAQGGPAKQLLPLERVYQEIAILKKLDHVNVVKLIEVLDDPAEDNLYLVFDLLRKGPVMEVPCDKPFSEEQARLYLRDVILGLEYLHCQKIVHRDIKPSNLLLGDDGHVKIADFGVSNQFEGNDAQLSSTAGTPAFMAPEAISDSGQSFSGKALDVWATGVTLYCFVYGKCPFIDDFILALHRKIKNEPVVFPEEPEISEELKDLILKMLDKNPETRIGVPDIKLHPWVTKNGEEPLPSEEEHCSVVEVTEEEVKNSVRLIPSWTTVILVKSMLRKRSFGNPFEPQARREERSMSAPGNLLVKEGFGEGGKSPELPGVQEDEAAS
Sequence of Calcium/calmodulin-dependent protein kinase kinase 2 (Q96RR4 whole entry): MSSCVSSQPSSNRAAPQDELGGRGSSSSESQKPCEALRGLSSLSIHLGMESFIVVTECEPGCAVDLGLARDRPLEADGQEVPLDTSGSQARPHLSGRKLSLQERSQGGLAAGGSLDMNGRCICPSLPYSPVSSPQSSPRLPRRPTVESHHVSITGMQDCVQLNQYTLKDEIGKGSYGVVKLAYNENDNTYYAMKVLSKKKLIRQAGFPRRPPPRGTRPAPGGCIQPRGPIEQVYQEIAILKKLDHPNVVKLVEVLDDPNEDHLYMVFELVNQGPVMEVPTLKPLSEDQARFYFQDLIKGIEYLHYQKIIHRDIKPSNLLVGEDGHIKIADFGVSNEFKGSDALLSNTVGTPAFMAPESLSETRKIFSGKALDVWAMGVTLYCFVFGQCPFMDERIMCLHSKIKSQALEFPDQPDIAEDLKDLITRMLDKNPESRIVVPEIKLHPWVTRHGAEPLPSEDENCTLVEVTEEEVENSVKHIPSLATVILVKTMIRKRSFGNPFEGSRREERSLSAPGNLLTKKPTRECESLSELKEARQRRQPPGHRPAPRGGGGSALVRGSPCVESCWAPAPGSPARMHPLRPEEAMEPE
Sequence of Von Hippel-Lindau disease tumor suppressor/Elongin B/Elongin C (P40337 whole entry, looked up, the tested form may be a part): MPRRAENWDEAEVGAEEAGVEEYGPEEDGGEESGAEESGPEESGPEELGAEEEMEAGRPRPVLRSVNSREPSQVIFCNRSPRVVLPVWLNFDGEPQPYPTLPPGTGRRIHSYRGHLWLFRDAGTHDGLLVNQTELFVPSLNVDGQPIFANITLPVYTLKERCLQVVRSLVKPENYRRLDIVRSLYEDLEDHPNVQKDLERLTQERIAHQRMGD
Sequence of Voltage-gated inwardly rectifying potassium channel KCNH2 (Q12809 whole entry): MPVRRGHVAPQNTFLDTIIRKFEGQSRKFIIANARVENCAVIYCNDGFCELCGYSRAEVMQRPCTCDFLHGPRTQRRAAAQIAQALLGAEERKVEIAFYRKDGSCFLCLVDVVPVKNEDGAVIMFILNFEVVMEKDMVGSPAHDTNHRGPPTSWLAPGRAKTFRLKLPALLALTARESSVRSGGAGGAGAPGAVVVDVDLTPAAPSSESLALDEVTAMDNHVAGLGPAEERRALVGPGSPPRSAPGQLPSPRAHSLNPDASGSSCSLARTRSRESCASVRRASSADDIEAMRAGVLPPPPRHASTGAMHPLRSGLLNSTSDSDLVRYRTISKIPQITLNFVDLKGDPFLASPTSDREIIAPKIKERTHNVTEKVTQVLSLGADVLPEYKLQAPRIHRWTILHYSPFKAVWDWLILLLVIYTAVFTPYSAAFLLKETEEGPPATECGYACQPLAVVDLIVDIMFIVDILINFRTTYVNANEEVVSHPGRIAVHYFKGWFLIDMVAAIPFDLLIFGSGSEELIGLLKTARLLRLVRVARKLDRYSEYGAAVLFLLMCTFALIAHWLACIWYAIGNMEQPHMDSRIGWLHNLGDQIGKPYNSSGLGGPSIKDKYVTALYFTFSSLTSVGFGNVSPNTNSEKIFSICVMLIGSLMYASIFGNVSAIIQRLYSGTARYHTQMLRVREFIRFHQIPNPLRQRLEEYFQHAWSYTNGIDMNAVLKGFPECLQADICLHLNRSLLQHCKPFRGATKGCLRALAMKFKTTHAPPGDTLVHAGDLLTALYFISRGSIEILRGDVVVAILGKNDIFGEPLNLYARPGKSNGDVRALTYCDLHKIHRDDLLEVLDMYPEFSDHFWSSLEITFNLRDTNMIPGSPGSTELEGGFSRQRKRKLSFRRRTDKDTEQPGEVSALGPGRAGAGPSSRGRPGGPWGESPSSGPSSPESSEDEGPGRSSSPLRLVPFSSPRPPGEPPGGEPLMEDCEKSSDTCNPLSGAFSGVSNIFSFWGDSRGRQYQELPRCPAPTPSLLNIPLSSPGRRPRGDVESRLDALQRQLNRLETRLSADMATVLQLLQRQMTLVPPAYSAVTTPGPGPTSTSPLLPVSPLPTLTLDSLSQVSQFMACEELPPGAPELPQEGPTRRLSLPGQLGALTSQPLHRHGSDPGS

As usually defined, the EC50 is the concentration that produces a half-maximal response. Regarding `Cc1ncsc1-c1ccc(CNC(=O)[C@@H]2C[C@@H](O)CN2C(=O)[C@@H](NC(=O)CCCCCCCCOc2ccc3c(-c4ccc(C(=O)O)c(C5CCCC5)c4)ncnc3c2)C(C)(C)C)cc1`, in data set [1], the EC50 is 0.62 µM.
Regarding `Cc1ncsc1-c1ccc(CNC(=O)[C@@H]2C[C@@H](O)CN2C(=O)[C@@H](NC(=O)CCCCCCCOc2ccc3c(-c4ccc(C(=O)O)c(C5CCCC5)c4)ncnc3c2)C(C)(C)C)cc1`, the EC50 in [1] was determined as 0.51 µM.
The IC50 is the midpoint of a concentration-inhibition curve. The term half-life denotes the time needed for the level to fall by half in the phase considered. The term Cmax denotes the peak of the concentration-time curve. By Tmax is commonly meant the time from dosing to the highest level. The AUC(0-t) is exposure summed from dosing to a finite time, without extrapolation to infinity. What is called bioavailability is the share of a dose that reaches the circulation, judged against a reference dose that is usually intravenous. `CCOc1cc(F)c2c(-c3ccc(C(=O)O)c(C(C)C)c3)ncnc2c1`: the IC50 was over 30 µM in data set [2] and 0.012 µM in [19]. The figures for the fraction unbound in data set [3], in [20] and in data set [21] were 0.02, 0.007 and 0.012, respectively. Moreover, the values for the half-life in data set [4], in [5] and in [14] were 20 h, 4.9 h and 11 h, respectively. The Cmax turned out to be 28 µM in data set [6], 19 µM in data set [7] and 30 µM in data set [17]. In addition, the figures for the Tmax in [8], in [13] and in data set [23] were 0.5 h, 3 h and 1.7 h, respectively. In data set [9], this compound had an AUC(0-t) at 24 h of 58 µM·h. In addition, the bioavailability came to 68% in data set [10], 80% in data set [15] and 95% in data set [18]. The values for the AUC(0-t) at 72 h in data set [11] and in data set [12] were 79 µM·h and 282 µM·h, respectively. Further, the results for the Vdss in [16] and in data set [24] were 0.44 L/kg and 0.57 L/kg, respectively. The fraction unbound at 72 h in [22] was 0.003.
As to `Cc1ncsc1-c1ccc(CNC(=O)[C@@H]2C[C@@H](O)CN2C(=O)[C@@H](NC(=O)CCCCCCCCCCCOc2ccc3c(-c4ccc(C(=O)O)c(C5CCCC5)c4)ncnc3c2)C(C)(C)C)cc1`, in data set [1], the EC50 is 4.5 µM.
Consider `Cc1ncsc1-c1ccc(CNC(=O)[C@@H]2C[C@@H](O)CN2C(=O)[C@@H](NC(=O)CCCCCCOc2ccc3c(-c4ccc(C(=O)O)c(C5CCCC5)c4)ncnc3c2)C(C)(C)C)cc1`, for which, in data set [1], the EC50 was determined as 2 µM.
On the same count and under the same terms, to `Cc1ncsc1-c1ccc(CNC(=O)[C@@H]2C[C@@H](O)CN2C(=O)[C@@H](NC(=O)CCCCCOc2ccc3c(-c4ccc(C(=O)O)c(C5CCCC5)c4)ncnc3c2)C(C)(C)C)cc1` belongs over 10 µM.
As usually defined, the Kd is the concentration at which binding is half-saturated. Consider `Cc1ncsc1-c1ccc(CNC(=O)[C@@H]2C[C@@H](O)CN2C(=O)[C@@H](NC(=O)CCCCCCCCCOc2ccc3c(-c4ccc(C(=O)O)c(C5CCCC5)c4)ncnc3c2)C(C)(C)C)cc1`, for which the AUC(0-t) at 72 h in data set [25] worked out at 3.96 µM·h; in data set [33] it was 39.9 µM·h. Also, the bioavailability in data set [26] was 100%; in data set [28], 18%. For the same compound, the Tmax in data set [27] and in data set [31] was 0.5 h in each case. Moreover, the results for the Cmax in data set [29] and in data set [34] were 7.18 µM and 3.21 µM, respectively. In addition, in [30], the Kd was 0.13 µM. In addition, the IC50 in data set [19] worked out at 0.094 µM. The half-life in data set [32] is 24 h; in data set [35] it was 8.1 h. Moreover, in the data set with A-427, the concentration for a half-maximal effect (EC50) was over 8 µM.
On to `CCOc1cc2ncnc(-c3ccc(C(=O)O)c(C4CCCC4)c3)c2cc1F`, for which, in data set [19], the IC50 came to 0.054 µM.
In the case of `CCOc1ccc2c(-c3ccc(C(=O)O)c(C(C)C)c3)ncnc2c1`, the IC50 in data set [19] came out at 0.047 µM.
As to `CCOc1cc2ncnc(-c3ccc(C(=O)O)c(C(C)C)c3)c2cc1F`, the IC50 in data set [19] worked out at 0.011 µM.
Consider `Cc1ncsc1-c1ccc(CNC(=O)[C@@H]2C[C@@H](O)CN2C(=O)[C@@H](NC(=O)CCCCCCCCCCOc2ccc3c(-c4ccc(C(=O)O)c(C5CCCC5)c4)ncnc3c2)C(C)(C)C)cc1`, for which, in data set [1], the EC50 stood at 0.53 µM.
Regarding `Cc1ncsc1-c1ccc(CNC(=O)[C@@H]2C[C@@H](O)CN2C(=O)[C@@H](N(C)C(=O)CCCCCCCCCOc2ccc3c(-c4ccc(C(=O)O)c(C5CCCC5)c4)ncnc3c2)C(C)(C)C)cc1`, the EC50 in data set [1] is over 10 µM.
